In US11634395B2, “Sulfonamide compound or salt thereof” (Taiho Pharmaceutical Co., Ltd., priority 2016, dated 2023):

What follows are compounds tested against Human RNR (human M1 subunit and human M2 subunit) (Homo sapiens (Human), UniProt P23921) (assay: Human RNR inhibition effect (formation of dCDP from CDP, HPLC)). Conditions: human M1 and M2 proteins, 10 μM CDP, 37° C. for 30 minutes; read-out: RNR Enzyme inhibitory activity IC50.
Assay type: biochemical
Method: The inhibitory activity against the ribonucleotide reduction reaction (hereinafter referred to as RNR reaction) of the test compound was determined by measuring the formation of deoxycytidine diphosphate (hereinafter referred to as dCDP) from cytidine diphosphate (hereinafter referred to as CDP) by the following method.
Human M1 subunit and human M2 subunit (mutant lacking amino terminal 59 amino acids), which are fused a histidine tag at the amino terminus, are overexpressed in Escherichia coli and are solubilized after collection, and histidine tagged human M1 and M2 proteins were purified on a nickel chelate column.
First, test compounds were serially diluted with DMSO. Next, human M1 protein and human M2 protein were added to an aqueous albumin solution derived from 0.02% fetal bovine serum, a DMSO solution of the compound of the present invention or the control DMSO solution (final concentration of DMSO was 1%) was added, and the mixture was allowed to stand for 20 minutes. Thereafter, the reaction buffer [50 mM HEPES buffer (pH 7.2) at the final concentration, 4 mM magnesium acetate at the final concentration, 100 mM potassium chloride at the final concentration, 6 mM dithiothreitol at the final concentration, 2 mM adenosine triphosphate at the final concentration, 0.24 mM nicotinamide adenine dinucleotide phosphate at final concentration] and 10 μM CDP at the final concentration were added and incubated at 37° C. for 30 minutes to perform RNR reaction. Immediately after the reaction, the reaction was stopped by heating at 100° C. for 15 minutes, followed by centrifugation at 10,000 rpm for 10 minutes. After the centrifugation, a portion (5 μL) of the resulting supernatant was analyzed with a high performance liquid chromatography (Shimadzu Corporation, Prominence) using Shim-pack XR-ODS (manufactured by Shimadzu GLC Co., 3.0×100 mm).

Chain of Human RNR (human M1 subunit and human M2 subunit) (P23921 whole entry): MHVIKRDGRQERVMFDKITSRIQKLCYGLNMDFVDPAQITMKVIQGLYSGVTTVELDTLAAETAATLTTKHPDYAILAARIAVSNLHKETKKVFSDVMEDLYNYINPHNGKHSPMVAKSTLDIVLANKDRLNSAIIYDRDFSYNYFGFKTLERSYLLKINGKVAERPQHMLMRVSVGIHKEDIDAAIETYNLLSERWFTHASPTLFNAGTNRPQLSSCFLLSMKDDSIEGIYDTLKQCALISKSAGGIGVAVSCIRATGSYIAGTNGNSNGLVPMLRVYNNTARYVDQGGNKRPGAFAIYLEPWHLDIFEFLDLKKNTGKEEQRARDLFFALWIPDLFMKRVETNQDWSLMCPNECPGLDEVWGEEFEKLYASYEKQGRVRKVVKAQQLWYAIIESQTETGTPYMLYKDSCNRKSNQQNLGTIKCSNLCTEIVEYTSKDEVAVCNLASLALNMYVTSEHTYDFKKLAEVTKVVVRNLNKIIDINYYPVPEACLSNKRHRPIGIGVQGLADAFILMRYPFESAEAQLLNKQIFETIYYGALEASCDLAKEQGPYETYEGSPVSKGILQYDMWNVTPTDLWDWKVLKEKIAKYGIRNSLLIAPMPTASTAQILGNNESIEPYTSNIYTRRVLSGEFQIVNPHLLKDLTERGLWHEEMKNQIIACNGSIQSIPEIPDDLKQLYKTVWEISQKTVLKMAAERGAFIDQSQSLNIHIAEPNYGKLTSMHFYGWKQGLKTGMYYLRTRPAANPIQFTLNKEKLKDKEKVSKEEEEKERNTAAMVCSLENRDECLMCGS

SMILES | IC50
Cc1c(Cl)ccc(F)c1[C@@H](C)[C@H](NS(=O)(=O)c1ccc(Cl)c2c1OCCC2(C)O)c1n[nH]c(=O)o1 (single isomer, unassigned) [Example 209B] | 180 nM
Cc1c(Br)ccc(F)c1[C@@H](C)[C@H](NS(=O)(=O)c1ccc(F)c2c1OCCC2(C)O)c1n[nH]c(=O)o1 (single isomer, unassigned) [Example 227A] | 50 nM
Cc1ccc(F)c([C@@H](C)[C@H](NS(=O)(=O)c2ccc(Cl)c3c2OCCC3(O)C(F)(F)F)c2n[nH]c(=O)o2)c1C (single isomer, unassigned) [Example 220B] | 80 nM
Cc1c(Br)ccc(F)c1[C@@H](C)[C@H](NS(=O)(=O)c1ccc(Cl)c2c1OCCC2(C)O)c1n[nH]c(=O)o1 (single isomer, unassigned) [Example 222A] | 80 nM
Cc1ccc(F)c([C@@H](C)[C@H](NS(=O)(=O)c2ccc(F)c3c2OCCC3(C)O)c2n[nH]c(=O)o2)c1C (single isomer, unassigned) [Example 224B] | 100 nM
COc1c(S(=O)(=O)N[C@H](c2n[nH]c(=O)o2)[C@H](C)c2c(F)ccc(C)c2C)ccc(Cl)c1C(C)O (single isomer, unassigned) [Example 208B] | 60 nM
[2H]C([2H])([2H])C1(O)CCOc2c(S(=O)(=O)N[C@H](c3n[nH]c(=O)o3)[C@H](C)c3c(F)ccc(Br)c3C)ccc(Cl)c21 (single isomer, unassigned) [Example 226A] | 50 nM
[2H]C([2H])([2H])C1(O)CCOc2c(S(=O)(=O)N[C@H](c3n[nH]c(=O)o3)[C@H](C)c3c(F)ccc(C)c3C)ccc(Cl)c21 (single isomer, unassigned) [Example 200B] | 80 nM
Cc1c(Br)ccc(F)c1[C@@H](C)[C@H](NS(=O)(=O)c1ccc(Cl)c2c1OCCC2(C)O)c1n[nH]c(=O)o1 (single isomer, unassigned) [Example 222B] | 60 nM
Cc1ccc(F)c([C@@H](C)[C@H](NS(=O)(=O)c2ccc(Cl)c3c2OCCC3(C)O)c2n[nH]c(=O)o2)c1C (single isomer, unassigned) [Example 207B] | 90 nM
Cc1ccc(F)c([C@@H](C)[C@H](NS(=O)(=O)c2ccc(Cl)c3c2OCCC3(C)O)c2n[nH]c(=O)o2)c1C (single isomer, unassigned) [Example 207A] | 130 nM
[2H]C([2H])([2H])C1(O)CCOc2c(S(=O)(=O)N[C@H](c3n[nH]c(=O)o3)[C@H](C)c3c(F)ccc(C)c3C)ccc(Cl)c21 (single isomer, unassigned) [Example 200A] | 30 nM
[2H]C([2H])([2H])C1(O)CCOc2c(S(=O)(=O)N[C@H](c3n[nH]c(=O)o3)[C@H](C)c3c(F)ccc(Br)c3C)ccc(Cl)c21 (single isomer, unassigned) [Example 226B] | 70 nM
COc1c(S(=O)(=O)N[C@H](c2n[nH]c(=O)o2)[C@H](C)c2c(F)ccc(C)c2C)ccc(Cl)c1C(C)O (single isomer, unassigned) [Example 208A] | 100 nM
Cc1c(Cl)ccc(F)c1[C@@H](C)[C@H](NS(=O)(=O)c1ccc(Cl)c2c1OCCC2(C)O)c1n[nH]c(=O)o1 (single isomer, unassigned) [Example 209A] | 100 nM
Cc1ccc(F)c([C@@H](C)[C@H](NS(=O)(=O)c2ccc(Cl)c3c2OCCC3(O)C(F)(F)F)c2n[nH]c(=O)o2)c1C (single isomer, unassigned) [Example 220A] | 60 nM

Further lines, results first:

IC50 | SMILES
60 nM | Cc1c(Cl)ccc(F)c1[C@@H](C)[C@H](NS(=O)(=O)c1ccc(F)c2c1OCCC2(C)O)c1n[nH]c(=O)o1 (single isomer, unassigned) [Example 229A]
120 nM | Cc1c(Cl)ccc(F)c1[C@@H](C)[C@H](NS(=O)(=O)c1ccc(Cl)c2c1OCCC2(C)N)c1n[nH]c(=O)o1 (single isomer, unassigned) [Example 330A]
90 nM | Cc1ccc(F)c([C@@H](C)[C@H](NS(=O)(=O)c2ccc(C(F)(F)F)c3c2OCCC3O)c2n[nH]c(=O)o2)c1C (single isomer, unassigned) [Example 244A]
310 nM | C[C@H](c1c(F)ccc2ccccc12)[C@H](NS(=O)(=O)c1ccc(Cl)c2c1OCCC2O)c1n[nH]c(=O)o1 (single isomer, unassigned) [Example 234A]
70 nM | Cc1ccc(F)c([C@@H](C)[C@H](NS(=O)(=O)c2ccc(Cl)c3c2OCCC3O)c2n[nH]c(=O)o2)c1C (single isomer, unassigned) [Example 235B]
70 nM | Cc1c(Br)ccc(F)c1[C@@H](C)[C@H](NS(=O)(=O)c1ccc(Cl)c2c1OCCC2O)c1n[nH]c(=O)o1 (single isomer, unassigned) [Example 243A]
80 nM | Cc1ccc(F)c([C@@H](C)[C@H](NS(=O)(=O)c2ccc(Cl)c3c2OCCC3O)c2n[nH]c(=O)o2)c1C (single isomer, unassigned) [Example 235A]
80 nM | [2H]C([2H])([2H])C1(O)CCOc2c(S(=O)(=O)N[C@H](c3n[nH]c(=O)o3)[C@H](C)c3c(F)ccc(Cl)c3C)ccc(Cl)c21 (single isomer, unassigned) [Example 228A]
50 nM | Cc1ccc(F)c([C@@H](C)[C@H](NS(=O)(=O)c2ccc(F)c3c2OCCC3O)c2n[nH]c(=O)o2)c1C (single isomer, unassigned) [Example 230B]
220 nM | Cc1ccc(F)c([C@@H](C)[C@H](NS(=O)(=O)c2ccc(C(F)(F)F)c3c2OCCC3O)c2n[nH]c(=O)o2)c1C (single isomer, unassigned) [Example 244B]
140 nM | [2H]C([2H])([2H])C1(O)CCOc2c(S(=O)(=O)N[C@H](c3n[nH]c(=O)o3)[C@H](C)c3c(F)ccc(Cl)c3C)ccc(Cl)c21 (single isomer, unassigned) [Example 228B]
100 nM | Cc1c(Br)ccc(F)c1[C@@H](C)[C@H](NS(=O)(=O)c1ccc(Cl)c2c1OCCC2O)c1n[nH]c(=O)o1 (single isomer, unassigned) [Example 243B]
290 nM | Cc1ccc(F)c([C@@H](C)[C@H](NS(=O)(=O)c2cccc3c2OC(C)(C)CC3O)c2n[nH]c(=O)o2)c1C (single isomer, unassigned) [Example 237A]
110 nM | Cc1c(Cl)ccc(F)c1[C@@H](C)[C@H](NS(=O)(=O)c1ccc(F)c2c1OCCC2(C)O)c1n[nH]c(=O)o1 (single isomer, unassigned) [Example 229B]
120 nM | Cc1ccc(F)c([C@@H](C)[C@H](NS(=O)(=O)c2ccc(F)c3c2OCCC3O)c2n[nH]c(=O)o2)c1C (single isomer, unassigned) [Example 230A]
110 nM | Cc1c(Cl)ccc(F)c1[C@@H](C)[C@H](NS(=O)(=O)c1ccc(Cl)c2c1OCCC2O)c1n[nH]c(=O)o1 (stereo partly drawn) [Example 238A, 5-chloro-N-((1S,2R)-2-(3-chloro-6-fluoro-2-methylphenyl)-1-(5-oxo-4,5-dihydro-1,3,4-oxadiazol-2-yl)propyl)-4-hydroxychroman-8-sulfonamide]
90 nM | Cc1c(Br)ccc(F)c1[C@@H](C)[C@H](NS(=O)(=O)c1ccc(F)c2c1OCCC2(C)O)c1n[nH]c(=O)o1 (single isomer, unassigned) [Example 227B]
200 nM | CCc1ccc(F)c([C@@H](C)[C@H](NS(=O)(=O)c2ccc(Cl)c3c2OCCC3O)c2n[nH]c(=O)o2)c1C (single isomer, unassigned) [Example 239A]
460 nM | Cc1c(Cl)ccc(F)c1[C@@H](C)[C@H](NS(=O)(=O)c1ccc(Cl)c2c1OCCC2(C)N)c1n[nH]c(=O)o1 (single isomer, unassigned) [Example 330B]

Same assay, conditions: human M1 and M2 subunits; formation of dCDP from CDP, 10 μM CDP, 37° C. for 30 minutes; read-out: RNR Enzyme inhibitory activity IC50

SMILES | IC50
C=C(c1c(F)ccc(C)c1C)[C@H](NS(=O)(=O)c1ccc(Cl)cc1OC)c1n[nH]c(=O)o1 [Example 185, (S)-4-chloro-N-(2-(6-fluoro-2,3-dimethylphenyl)-1-(5-oxo-4,5-dihydro-1,3,4-oxadiazol-2-yl)allyl)-2-methoxybenzenesulfonamide] | 600 nM
